The values that follow are results of earlier work, collected in patent US20250261634A1, “LIQUID HERBICIDAL COMPOSITIONS” (priority 2021, published 2025).

In the data set the test system is weeds. As to conditions: in vivo.

Consider `CP(=O)(O)CC[C@H](N)C(=O)O` (single isomer, unassigned) [L-isomer], for which the “herbicidal activity relative to the racemate” value is listed as “twice that of the racemate”.
